In series [1] the test system is mouse bone-marrow cells (CFU-E colonies). As to the kind of experiment: in vitro CFU-E colony assay in methylcellulose semisolid medium under the existence of EPO. Type of series: cell-based. The conditions noted are these: for CFU-E inhibiting action (inhibition of expression of CFU-E colonies) / CFU-E inhibiting action (expression of CFU-E colonies): 48 hours. As for the experimental part:
(§1) More specifically, the in vitro colony assay method wherein a methylcellulose semisolid medium is used is generally used as the method for determining CFU-E. It is the most suitable experimental system for finding the action of improving the decrease of CFU-E caused by chemotherapy agents. […] In the oral administration to rats, the single administration of 1.2 g/kg of arginine makes the blood concentration thereof reach around 600 μM. Therefore, the increase of CFU-E dependent on the administered dose is expected in the oral administration. In human beings, too, it is expected that the number of CFU-E increases depending on the blood concentration of arginine by the oral administration.
The in vitro CFU-E colony assay was conducted as follows. After making a male BDF-1 mouse of 11 weeks old (by Charles River Laboratories Japan, Inc.) die by the cervical dislocation method, the bone-marrow cells were isolated from the thighbone and suspended in the IMDM medium (by Invitrogen Corporation) which contained 10% FCS (by JRH Biosciences). The bone-marrow cells were centrifuged at 1500 rpm for 10 minutes at 4° C. Then, the precipitated bone-marrow cells were substituted on the IMDM medium without an amino acid, and the number of the cells was determined. 1 mL of a methylcellulose semisolid medium wherein the bone-marrow cells were suspended in the IMDM medium of ⅓ concentration (0.03, 0.1, 0.3 and 1.0 U/mL of rHuEPO by Chugai Pharmaceutical Co., Ltd.; 100 μM of 2-mercaptoethanol by Wako Pure Chemical Industries, Ltd.; 15% FCS by JRH Biosciences; 0.8% methylcellulose, IMDM solution M3134 containing methylcellulose by StemCell Technologies Inc.; 1% BSA by Sigma-Aldrich Japan K.K.; and bone-marrow cells 2.5×10^5/mL) was added to a dish of 3.5 cm in diameter (Nalge Nunc International K.K.). After the medium was cultured at 37° C. under 5% CO2 for 48 hours, the number of CFU-E colonies was determined by using an inverted microscope. […] Data is indicated as the average value.
The in vitro CFU-E colony assay was conducted in the EPO concentration of the maximal action amount thereof. […] Then, the number of CFU-E colonies was determined by using an inverted microscope. […] Data is indicated as the average value.
The CFU-E colony assay was conducted by the same method as that of Example 1. […] Data is indicated as the average value. The vertical axis is the relative value (%) when regarding the number of CFU-E colonies in the control case as 100%.
The in vitro CFU-E colony assay was conducted in the EPO concentration of the maximal action amount thereof. The bone-marrow cells were prepared by the same method as that of Example 1, using a male BDF-1 mouse of 12 weeks old (by Charles River Laboratories Japan, Inc.). Irinotecan hydrochloride was further added to a methylcellulose semisolid medium wherein the bone-marrow cells were suspended in the IMDM medium of ⅓ concentration (1.0 U/mL of rHuEPO by Chugai Pharmaceutical Co., Ltd.; 100 μM of 2-mercaptoethanol by Wako Pure Chemical Industries, Ltd.; 30% FCS by JRH Biosciences; 0.8% methylcellulose, IMDM solution M3134 containing methylcellulose by StemCell Technologies Inc.; 1% BSA by Sigma-Aldrich Japan K.K.; and bone-marrow cells 2.5×10^5/mL), so that the final concentration of irinotecan hydrochloride became 1 μM and 10 μM. After the medium was cultured at 37° C. under 5% CO2 for 48 hours, the number of CFU-E colonies was determined by using an inverted microscope. […] Data is indicated as the average value.
The CFU-E colony assay was conducted by the same method as that of above (1), using a male BDF-1 mouse of 11 weeks old (by Charles River Laboratories Japan, Inc.). The medium to which only 3 μM of irinotecan hydrochloride in its final concentration was added and the medium to which irinotecan hydrochloride in the same concentration as above and 600 uM of arginine were simultaneously further added were prepared and the number of CFU-E colonies was determined. […]

Series [2] shares this test system. The series can be described thus: in vitro CFU-E colony assay under the existence of EPO mimic peptide EMP1. Type of series: cell-based. As for the experimental part: The bone-marrow cells were prepared by the same method as that of Example 1, using a male BDF-1 mouse of 10 weeks old (by Charles River Laboratories Japan, Inc.). 1 mL of a methylcellulose semisolid medium wherein the bone-marrow cells were suspended in the IMDM medium of ⅓ concentration (1, 3, 10 and 30 μM of EMP1; 100 μM of 2-mercaptoethanol by Wako Pure Chemical Industries, Ltd.; 24% FCS by JRH Biosciences; 0.8% methylcellulose, IMDM solution M3134 containing methylcellulose by StemCell Technologies Inc.; 2% BSA by Sigma-Aldrich Japan K.K.; and bone-marrow cells 2×10^5/mL) was added to a dish of 3.5 cm in diameter (Nalge Nunc International K.K.). After the medium was cultured at 37° C. under 5% CO2 for 48 hours, the number of CFU-E colonies was determined by using an inverted microscope. […] Data is indicated as the average value.
The in vitro CFU-E colony assay was conducted in the EMP1 concentration of the maximal action amount thereof. The bone-marrow cells were prepared by the same method as that of Example 1, using a male BDF-1 mouse of 10 weeks old (by Charles River Laboratories Japan, Inc.). […] After each medium was cultured at 37° C. under 5% CO2 for 48 hours, the number of CFU-E colonies was determined by using an inverted microscope. […] Data is indicated as the average value. The vertical axis is the relative value (%) when regarding the number of CFU-E colonies in the control case as 100%.

Series [3] in a line: blood concentration of arginine after oral administration to rats. It counts as in vivo. The conditions noted are these: single administration of 1.2 g/kg. As for the experimental part: as §1

Structures can show the parent of a compound that is named as a salt. Bridges are numbered along the chain shown (N, C = ends). Where no end group is shown, it is not given here.

This note sets out measurements from patent US20080249001A1, “AGENTS THAT ALLEVIATE SIDE-EFFECTS CAUSED BY CHEMOTHERAPY AGENTS” (priority 2006, published 2008).

For `COc1cc([C@@H]2c3cc4c(cc3[C@@H](O[C@@H]3O[C@@H]5CO[C@@H](C)O[C@H]5[C@H](O)[C@H]3O)[C@H]3COC(=O)[C@H]23)OCO4)cc(OC)c1O` [VP-16, etoposide], the “CFU-E inhibiting action (inhibition of expression of CFU-E colonies)” value in series [1] (1 nM VP-16, 1 U/mL EPO, FIG. 2) turned out to be 10%; in series [1] (10 nM VP-16, 1 U/mL EPO, FIG. 2) it was 30%. In addition, the “CFU-E inhibiting action (expression of CFU-E colonies)” value in series [1] (100 nM VP-16, 1 U/mL EPO, FIG. 2) is listed as “nearly completely inhibited”. Also, in series [2] (10 nM VP-16 alone, 30 μM EMP1, relative to control 100%, FIG. 7), the “decrease of number of CFU-E colonies due to single addition” value was “about 30%”.

As for `N=C(N)NCCC[C@H](N)C(=O)O` [arginine], the “number of CFU-E colonies improved on simultaneous addition of arginine” value in series [1] (600 uM arginine + 10 nM VP-16, 1 U/mL EPO, relative value to control 100%, FIG. 3) is given as approximately 90%; in series [2] (600 μM arginine + 10 nM VP-16, 30 μM EMP1, relative value to control 100%, FIG. 7), approximately 90%. Also, in series [1] (600 uM arginine + 3 μM irinotecan hydrochloride, 1 U/mL EPO, FIG. 5), the “increase of number of CFU-E colonies as compared with single addition of irinotecan hydrochloride” value is given as approximately 30%. In addition, in series [3], the blood concentration result is listed as “around 600 μM”.

Turning to `CCc1c2c(nc3ccc(OC(=O)N4CCC(N5CCCCC5)CC4)cc13)-c1cc3c(c(=O)n1C2)COC(=O)[C@]3(O)CC` [irinotecan hydrochloride], the “CFU-E inhibiting action (inhibition of expression of CFU-E colonies)” value in series [1] (1 μM irinotecan hydrochloride, 1 U/mL EPO, FIG. 4) is listed as 30%. The “CFU-E inhibiting action (expression of CFU-E colonies)” value in series [1] (10 μM irinotecan hydrochloride, 1 U/mL EPO, FIG. 4) is reported as “nearly completely inhibited”.

As to “GGTYSCHFGPLTWVCKPQGG-NH2, C6-C15 disulfide bonding (disulfide 6-15; N-terminus assumed; SMILES CC(C)C[C@@H]1NC(=O)[C@@H]2CCCN2C(=O)CNC(=O)[C@H](Cc2ccccc2)NC(=O)[C@H](Cc2c[nH]cn2)NC(=O)[C@@H](NC(=O)[C@H](CO)NC(=O)[C@H](Cc2ccc(O)cc2)NC(=O)[C@@H](NC(=O)CNC(=O)CN)[C@@H](C)O)CSSC[C@@H](C(=O)N[C@@H](CCCCN)C(=O)N2CCC[C@H]2C(=O)N[C@@H](CCC(N)=O)C(=O)NCC(=O)NCC(N)=O)NC(=O)[C@H](C(C)C)NC(=O)[C@H](Cc2c[nH]c3ccccc23)NC(=O)[C@H]([C@@H](C)O)NC1=O) [EMP1]”, the “maximal action amount (CFU-E colony formation)” value in series [2] (EMP1 1, 3, 10 and 30 μM, 48 hours culture, FIG. 6) was not below 10 µM.
